Test results from US20230024283A1, “HERBICIDAL COMPOUNDS” (SYNGENTA CROP PROTECTION AG, priority 2020, published 2023).

test system: Abutilon theophrasti (ABUTH); assay: Post-emergence herbicidal glasshouse test; type: in vivo; details: post-emergence spray, 1000 g/ha, evaluated after 13 days, five-point scale
Experimental: (§1) Seeds of a variety of test species are sown in standard soil in pots (Ipomoea hederacea (IPOHE), Abutilon theophrasti (ABUTH), Amaranthus retoflexus (AMARE), Echinochloa crus-galli (ECHCG), Setaria faberi (SETFA)). After 8 days cultivation under controlled conditions in a glasshouse (at 24/16° C., day/night; 14 hours light; 65% humidity), the plants are sprayed with an aqueous spray solution derived from the formulation of the technical active ingredient in acetone / water (50:50) solution containing 0.5% Tween 20 (polyoxyethelyene sorbitan monolaurate, CAS RN 9005-64-5). Compounds are applied at 1000 g/ha unless otherwise stated. The test plants are then grown in a glasshouse under controlled conditions in a glasshouse (at 24/16° C., day/night; 14 hours light; 65% humidity) and watered twice daily. After 13 days the test is evaluated for the percentage damage caused to the plant. The biological activities are shown in the following table on a five-point scale (5=81-100%; 4=61-80%; 3=41-60%; 2=21-40%; 1=0-20%).

SMILES | percentage damage caused to the plant, ABUTH
CC(=O)Oc1c(-c2cccc(F)c2)cc(C#N)cc1C(F)(F)F [Compound 2.002] | 5 (5=81-100%)
N#Cc1cc(-n2cc(C(F)(F)F)cn2)c(O)c(C(F)(F)F)c1 [Compound 1.190] | 1 (1=0-20%)
N#Cc1cc(-c2ccc(OC(F)(F)F)cc2)c(O)c(C(F)(F)F)c1 [Compound 1.151] | 1 (1=0-20%)
Cc1cn(-c2cc(C#N)cc(C(F)(F)F)c2O)nc1C(F)(F)F [Compound 1.187] | 1 (1=0-20%)
N#Cc1cncc(-c2cc(C#N)cc(Br)c2O)c1 [Compound 1.067] | 3 (3=41-60%)
N#Cc1cc(Br)c(O)c(-c2ccccc2)c1 [Compound 1.047] | 5 (5=81-100%)
N#Cc1cc(Br)c(O)c(-c2cncnc2)c1 [Compound 1.044] | 5 (5=81-100%)
N#Cc1cc(Br)c(O)c(-c2ccc(F)cc2)c1 [Compound 1.048] | 5 (5=81-100%)
N#Cc1cc(-c2cc(F)c(F)c(F)c2)c(O)c(C(F)(F)F)c1 [Compound 1.182] | 4 (4=61-80%)
Cc1cc(F)cc(-c2cc(C#N)cc(C(F)(F)F)c2O)c1 [Compound 1.162] | 1 (1=0-20%)
N#Cc1cc(C#N)c(O)c(-c2cccc(F)c2)c1 [Compound 1.194] | 3 (3=41-60%)
N#Cc1cc(-c2ccnc(C(F)(F)F)c2)c(O)c(C(F)(F)F)c1 [Compound 1.158] | 1 (1=0-20%)
N#Cc1cc(Br)c(O)c(-c2ccsc2)c1 [Compound 1.135] | 5 (5=81-100%)
N#Cc1cc(Br)c(O)c(-c2cccc(Cl)c2)c1 [Compound 1.054] | 5 (5=81-100%)
N#Cc1cc(Br)c(O)c(-c2cccc(Br)c2)c1 [Compound 1.061] | 3 (3=41-60%)
CC(C)C(=O)Oc1c(Cl)cc(C#N)cc1-c1cccc(F)c1 [Compound 2.006] | 4 (4=61-80%)
N#Cc1cc(Br)c(O)c(-c2cccc(C(F)(F)F)c2)c1 [Compound 1.060] | 4 (4=61-80%)

test system: Amaranthus retoflexus (AMARE); assay: Post-emergence herbicidal glasshouse test; type: in vivo; details: post-emergence spray, 1000 g/ha, evaluated after 13 days, five-point scale
Experimental: as §1

SMILES | percentage damage caused to the plant, AMARE
CC(=O)Oc1c(-c2cccc(F)c2)cc(C#N)cc1C(F)(F)F [Compound 2.002] | 5 (5=81-100%)
N#Cc1cc(-n2cc(C(F)(F)F)cn2)c(O)c(C(F)(F)F)c1 [Compound 1.190] | 3 (3=41-60%)
N#Cc1cc(-c2ccc(OC(F)(F)F)cc2)c(O)c(C(F)(F)F)c1 [Compound 1.151] | 5 (5=81-100%)
Cc1cn(-c2cc(C#N)cc(C(F)(F)F)c2O)nc1C(F)(F)F [Compound 1.187] | 5 (5=81-100%)
N#Cc1cncc(-c2cc(C#N)cc(Br)c2O)c1 [Compound 1.067] | 1 (1=0-20%)
N#Cc1cc(Br)c(O)c(-c2ccccc2)c1 [Compound 1.047] | 5 (5=81-100%)
N#Cc1cc(Br)c(O)c(-c2cncnc2)c1 [Compound 1.044] | 5 (5=81-100%)
N#Cc1cc(Br)c(O)c(-c2ccc(F)cc2)c1 [Compound 1.048] | 5 (5=81-100%)
N#Cc1cc(-c2cc(F)c(F)c(F)c2)c(O)c(C(F)(F)F)c1 [Compound 1.182] | 5 (5=81-100%)
Cc1cc(F)cc(-c2cc(C#N)cc(C(F)(F)F)c2O)c1 [Compound 1.162] | 2 (2=21-40%)
N#Cc1cc(C#N)c(O)c(-c2cccc(F)c2)c1 [Compound 1.194] | 2 (2=21-40%)
N#Cc1cc(-c2ccnc(C(F)(F)F)c2)c(O)c(C(F)(F)F)c1 [Compound 1.158] | 4 (4=61-80%)
N#Cc1cc(Br)c(O)c(-c2ccsc2)c1 [Compound 1.135] | 2 (2=21-40%)
N#Cc1cc(Br)c(O)c(-c2cccc(Cl)c2)c1 [Compound 1.054] | 5 (5=81-100%)
N#Cc1cc(Br)c(O)c(-c2cccc(Br)c2)c1 [Compound 1.061] | 5 (5=81-100%)
CC(C)C(=O)Oc1c(Cl)cc(C#N)cc1-c1cccc(F)c1 [Compound 2.006] | 3 (3=41-60%)
N#Cc1cc(Br)c(O)c(-c2cccc(C(F)(F)F)c2)c1 [Compound 1.060] | 5 (5=81-100%)

test system: Echinochloa crus-galli (ECHCG); assay: Post-emergence herbicidal glasshouse test; type: in vivo; details: post-emergence spray, 1000 g/ha, evaluated after 13 days, five-point scale
Experimental: as §1

SMILES | percentage damage caused to the plant, ECHCG
CC(=O)Oc1c(-c2cccc(F)c2)cc(C#N)cc1C(F)(F)F [Compound 2.002] | 4 (4=61-80%)
N#Cc1cc(-n2cc(C(F)(F)F)cn2)c(O)c(C(F)(F)F)c1 [Compound 1.190] | 1 (1=0-20%)
N#Cc1cc(-c2ccc(OC(F)(F)F)cc2)c(O)c(C(F)(F)F)c1 [Compound 1.151] | 1 (1=0-20%)
Cc1cn(-c2cc(C#N)cc(C(F)(F)F)c2O)nc1C(F)(F)F [Compound 1.187] | 1 (1=0-20%)
N#Cc1cncc(-c2cc(C#N)cc(Br)c2O)c1 [Compound 1.067] | 2 (2=21-40%)
N#Cc1cc(Br)c(O)c(-c2ccccc2)c1 [Compound 1.047] | 1 (1=0-20%)
N#Cc1cc(Br)c(O)c(-c2cncnc2)c1 [Compound 1.044] | 2 (2=21-40%)
N#Cc1cc(Br)c(O)c(-c2ccc(F)cc2)c1 [Compound 1.048] | 2 (2=21-40%)
N#Cc1cc(-c2cc(F)c(F)c(F)c2)c(O)c(C(F)(F)F)c1 [Compound 1.182] | 1 (1=0-20%)
Cc1cc(F)cc(-c2cc(C#N)cc(C(F)(F)F)c2O)c1 [Compound 1.162] | 1 (1=0-20%)
N#Cc1cc(C#N)c(O)c(-c2cccc(F)c2)c1 [Compound 1.194] | 1 (1=0-20%)
N#Cc1cc(-c2ccnc(C(F)(F)F)c2)c(O)c(C(F)(F)F)c1 [Compound 1.158] | 1 (1=0-20%)
N#Cc1cc(Br)c(O)c(-c2ccsc2)c1 [Compound 1.135] | 1 (1=0-20%)
N#Cc1cc(Br)c(O)c(-c2cccc(Cl)c2)c1 [Compound 1.054] | 3 (3=41-60%)
N#Cc1cc(Br)c(O)c(-c2cccc(Br)c2)c1 [Compound 1.061] | 1 (1=0-20%)
CC(C)C(=O)Oc1c(Cl)cc(C#N)cc1-c1cccc(F)c1 [Compound 2.006] | 1 (1=0-20%)
N#Cc1cc(Br)c(O)c(-c2cccc(C(F)(F)F)c2)c1 [Compound 1.060] | 1 (1=0-20%)

test system: Ipomoea hederacea (IPOHE); assay: Post-emergence herbicidal glasshouse test; type: in vivo; details: post-emergence spray, 1000 g/ha, evaluated after 13 days, five-point scale
Experimental: as §1

SMILES | percentage damage caused to the plant, IPOHE
CC(=O)Oc1c(-c2cccc(F)c2)cc(C#N)cc1C(F)(F)F [Compound 2.002] | 5 (5=81-100%)
N#Cc1cc(-n2cc(C(F)(F)F)cn2)c(O)c(C(F)(F)F)c1 [Compound 1.190] | 1 (1=0-20%)
N#Cc1cc(-c2ccc(OC(F)(F)F)cc2)c(O)c(C(F)(F)F)c1 [Compound 1.151] | 3 (3=41-60%)
Cc1cn(-c2cc(C#N)cc(C(F)(F)F)c2O)nc1C(F)(F)F [Compound 1.187] | 1 (1=0-20%)
N#Cc1cncc(-c2cc(C#N)cc(Br)c2O)c1 [Compound 1.067] | 2 (2=21-40%)
N#Cc1cc(Br)c(O)c(-c2ccccc2)c1 [Compound 1.047] | 3 (3=41-60%)
N#Cc1cc(Br)c(O)c(-c2cncnc2)c1 [Compound 1.044] | 1 (1=0-20%)
N#Cc1cc(Br)c(O)c(-c2ccc(F)cc2)c1 [Compound 1.048] | 2 (2=21-40%)
N#Cc1cc(-c2cc(F)c(F)c(F)c2)c(O)c(C(F)(F)F)c1 [Compound 1.182] | 5 (5=81-100%)
Cc1cc(F)cc(-c2cc(C#N)cc(C(F)(F)F)c2O)c1 [Compound 1.162] | 3 (3=41-60%)
N#Cc1cc(C#N)c(O)c(-c2cccc(F)c2)c1 [Compound 1.194] | 3 (3=41-60%)
N#Cc1cc(-c2ccnc(C(F)(F)F)c2)c(O)c(C(F)(F)F)c1 [Compound 1.158] | 2 (2=21-40%)
N#Cc1cc(Br)c(O)c(-c2ccsc2)c1 [Compound 1.135] | 5 (5=81-100%)
N#Cc1cc(Br)c(O)c(-c2cccc(Cl)c2)c1 [Compound 1.054] | 2 (2=21-40%)
N#Cc1cc(Br)c(O)c(-c2cccc(Br)c2)c1 [Compound 1.061] | 3 (3=41-60%)
CC(C)C(=O)Oc1c(Cl)cc(C#N)cc1-c1cccc(F)c1 [Compound 2.006] | 1 (1=0-20%)
N#Cc1cc(Br)c(O)c(-c2cccc(C(F)(F)F)c2)c1 [Compound 1.060] | 2 (2=21-40%)

test system: Setaria faberi (SETFA); assay: Post-emergence herbicidal glasshouse test; type: in vivo; details: post-emergence spray, 1000 g/ha, evaluated after 13 days, five-point scale
Experimental: as §1

SMILES | percentage damage caused to the plant, SETFA
CC(=O)Oc1c(-c2cccc(F)c2)cc(C#N)cc1C(F)(F)F [Compound 2.002] | 1 (1=0-20%)
N#Cc1cc(-n2cc(C(F)(F)F)cn2)c(O)c(C(F)(F)F)c1 [Compound 1.190] | 1 (1=0-20%)
N#Cc1cc(-c2ccc(OC(F)(F)F)cc2)c(O)c(C(F)(F)F)c1 [Compound 1.151] | 1 (1=0-20%)
Cc1cn(-c2cc(C#N)cc(C(F)(F)F)c2O)nc1C(F)(F)F [Compound 1.187] | 1 (1=0-20%)
N#Cc1cncc(-c2cc(C#N)cc(Br)c2O)c1 [Compound 1.067] | 2 (2=21-40%)
N#Cc1cc(Br)c(O)c(-c2ccccc2)c1 [Compound 1.047] | 2 (2=21-40%)
N#Cc1cc(Br)c(O)c(-c2cncnc2)c1 [Compound 1.044] | 3 (3=41-60%)
N#Cc1cc(Br)c(O)c(-c2ccc(F)cc2)c1 [Compound 1.048] | 2 (2=21-40%)
N#Cc1cc(-c2cc(F)c(F)c(F)c2)c(O)c(C(F)(F)F)c1 [Compound 1.182] | 1 (1=0-20%)
Cc1cc(F)cc(-c2cc(C#N)cc(C(F)(F)F)c2O)c1 [Compound 1.162] | 1 (1=0-20%)
N#Cc1cc(C#N)c(O)c(-c2cccc(F)c2)c1 [Compound 1.194] | 2 (2=21-40%)
N#Cc1cc(-c2ccnc(C(F)(F)F)c2)c(O)c(C(F)(F)F)c1 [Compound 1.158] | 1 (1=0-20%)
N#Cc1cc(Br)c(O)c(-c2ccsc2)c1 [Compound 1.135] | 1 (1=0-20%)
N#Cc1cc(Br)c(O)c(-c2cccc(Cl)c2)c1 [Compound 1.054] | 2 (2=21-40%)
N#Cc1cc(Br)c(O)c(-c2cccc(Br)c2)c1 [Compound 1.061] | 1 (1=0-20%)
CC(C)C(=O)Oc1c(Cl)cc(C#N)cc1-c1cccc(F)c1 [Compound 2.006] | 1 (1=0-20%)
N#Cc1cc(Br)c(O)c(-c2cccc(C(F)(F)F)c2)c1 [Compound 1.060] | 1 (1=0-20%)
